Data: patent US20180133211A1, “METHODS AND MATERIALS FOR PROMOTING BONE FORMATION” (Mayo Foundation for Medical Education and Research, priority 2015, published 2018)

Assays:
mouse calvarial explants = assay: RT-qPCR mRNA expression in calvarial explants; assay type: cell-based; details: calvarial explants from neo-natal and adult mice, 3 μM, 12 days ex vivo
Protocol: Calvariae from 2 to 3-day-old and from 7-week old C57BL/6 mice were dissected aseptically. The calvarial bone explants were cultured in 48-well plates in α-MEM (Biochrom) containing 10% FCS (Biochrom), 50 μg/mL ascorbic acid (Sigma-Aldrich), 5 mM β-glycerophosphate (Sigma-Aldrich), and 10 μg/mL gentamicin (Sigma-Aldrich). The day after dissection, medium was changed, and a part of the explants was treated with 3 μM L- or DL-SFN for 12 days. Thereafter, one part of the calvariae were fixed for 1 hour in 4% para-formaldehyde (PFA), and mineralization was measured by Alizarin Red S stain (Sigma-Aldrich). For this purpose, Alizarin Red S dye was extracted using 10% cetylpyridinium chloride (CPC) in 10 mM sodiumphosphate (pH=7.0) for 45 minutes at room temperature. Alizarin Red S absorbance was measured at 562 nm in a multi-plate reader (Tecan, Maennedorf, Switzerland) and normalized to total protein amount measured by bicinchoninic acid assay (Thermo Fisher Scientific, Waltham, Mass., USA). […]
Total RNA was extracted using the SV Total RNA Isolation kit (Promega) following the supplier's instructions. cDNA was synthesized from about 0.5 μg RNA using the First Strand cDNA Synthesis kit (Roche) as described by the supplier. […] All RT-qPCR assays were performed in triplicate, and expression was evaluated using the comparative quantification method (Pfaffl, Nucleic Acids Res., 29:e45 (2001)).

[1] = system: sham operated or ovariectomized (OVX) C57B16/J female mice; assay: In vivo analysis of SFN effects on bone, μCT; parameters: species or system mouse; details: sham-operated mice
Protocol: Analysis of SFN on mice was performed using a protocol similar to that described elsewhere (Kong et al., Arthritis Rheum., 62:159-170 (2010)). In the experimental setting herein, eight week old sham operated or ovariectomized (OVX) C57B16/J female mice were purchased from Charles River laboratories. Mice were injected with 7.5 mM DL-SFN (200 μL of SFN at a concentration of 63.8 mg/mL/kg dissolved in ethanol and further diluted in PBS) intraperitoneally every other day for five weeks. Control mice received vehicle alone.
Images from tibias fixed in 4% formaldehyde were acquired in a SkyScan 1174 with a resolution of 6 μm (X-ray voltage 50 kV). Image reconstruction was performed by applying a modified Feldkamp algorithm using the Skyscan Nrecon software. 3D and 2D morphometric parameters were calculated for the trabecular bone (350 consecutive slides, 6 μm thick) starting from 300 μm from the growth plate. Threshold values were applied for segmenting trabecular bone corresponding to bone mineral density values of 0.6/cm^3 calcium hydroxyapatite. 3D parameters were based on analysis of a Marching Cubes type model with a rendered surface. Calculation all of 2D areas and perimeters was based on the Pratt algorithm (Pratt et al., IEEE Trans. Biomed. Eng., 38, 306-309 (1991). Bone structural variables and nomenclature were used according to Bouxsein et al. (J. Bone Miner. Res., 25:1468-1486 (2010)).

female C57BL/6 mice = assay: microCT of femur after 5 weeks of daily GSK126 (in vivo Ezh2 inhibition); parameters: species or system mouse; details: for Ct. TV: cortical bone; for Ct. TV / Ct. Ar / Ct. BV / Ct. Mat.M.Dn / Ct. Th / Ec. Ar / Ps.Ar: femoral midshaft; for Ct. TV / Tb.N / Tb.Sp / Tb.Th / Ct. Ar / Ct. BV / Ct. Mat.M.Dn / Ct. Th / Ec. Ar / Ps.Ar: 5 weeks, mean; for Tb.N / Tb.Sp / Tb.Th: distal femur metaphysis
Protocol: (§1) Female C57BL/6 mice (Harlan Laboratories) were maintained on a 12-hour light/12-hour dark cycle and were permitted ad libitum access to food and water. For efficacy studies, 6-week old mice received daily intraperitoneal (IP) injections of GSK126 at 15 mg/kg, 50 mg/kg, or vehicle (DMSO) in 20% Captisol adjusted to pH 4-4.5 with IN acetic acid (McCabe et al., Nature, 492:108-112 (2012)) for 5 weeks.
(§2) The dosage, delivery schedule, and administration route were similar to those described elsewhere (McCabe et al., Nature, 492:108-112 (2012)). Animals were weighed daily. To label mineralizing bone surfaces, mice received subcutaneous injections of calcein (10 mg/kg) 5 days and 24 hours before euthanasia.
The quantitative analysis of the femoral metaphysis was performed using a vivaCT 40 scanner (SCANCO Medical AG) with the following parameters: E=55 kVp, 1=145 μA, integration time=300 ms. A 10.5 μm voxel size using a threshold of 220 was applied to all scans at high resolution. Using two-dimensional data from scanned slices, 3D analysis was generated and used to calculate morphometric parameters defining trabecular bone mass and micro-architecture, including Bone Volume/Tissue volume (BV/TV), trabecular number (Tb.N.), trabecular thickness (Tb.Th.), trabecular spacing (Tb.Sp.), and the structure model index (SMI), an indicator of plate-like versus rod-like trabecular architecture.

[2] = Body and spleen weight in GSK126 in vivo studies; parameters: species or system mouse
Protocol: as §1, §2
The effects of GSK126 administration on the skeleton was evaluated in an estrogen-deficient ovariectomy (OVX) model. At about 12 weeks of age, female C57BL/6 mice underwent either sham or OVX surgeries. The following day, animals received daily IP injections of GSK126 or vehicle (DMSO) at 50 mg/kg body weight for 6 weeks as described herein. To label mineralizing bone surfaces and study bone formation rates, mice received subcutaneous injections of tetracycline (25 mg/kg) 14 days prior sacrifice and calcein (10 mg/kg) at 5 days and 24 hours before euthanasia.

C[S+]([O-])CCCCN=C=S (racemic) [DL-SFN]
Tnfsf11 expression (mouse calvarial explants): decreased | femoral metaphyseal cancellous bone volume per tissue volume (BV/TV) ([1]; DL-SFN IP every other day for five weeks): significantly higher | trabecular number (Tb.N) ([1]; DL-SFN for five weeks): significantly higher | trabecular separation (Tb.Sp.) ([1]; DL-SFN for five weeks): decreasing | trabecular thickness (Tb.Th.) ([1]; DL-SFN for five weeks): not affecting

CC[C@H](C)n1cc(C)c2c(C(=O)NCc3c(C)cc(C)[nH]c3=O)cc(-c3ccc(N4CCNCC4)nc3)cc21 [GSK126, N-[(1,2-dihydro-4,6-dimethyl-2-oxo-3-pyridinyl)methyl]-3-methyl-1-[(1S)-1-methylpropyl]-6-[6-(1-piperazinyl)-3-pyridinyl]-1H-indole-4-carboxamide]
cortical bone parameters (female C57BL/6 mice; adult mice, 50 mg/kg daily for 5 weeks, in words): increased | Ct. TV (female C57BL/6 mice; 15 mg/kg): 1.184 mm^3 | Ct. TV (female C57BL/6 mice; 50 mg/kg): 1.243 mm^3 | Tb.N (female C57BL/6 mice; 15 mg/kg): 3.850 mm^−1 | Tb.Sp (female C57BL/6 mice; 15 mg/kg): 0.267 mm | Tb.Th (female C57BL/6 mice; 15 mg/kg): 0.040 mm | Tb.N (female C57BL/6 mice; 50 mg/kg): 4.053 mm^−1 | Tb.Sp (female C57BL/6 mice; 50 mg/kg): 0.252 mm | Tb.Th (female C57BL/6 mice; 50 mg/kg): 0.043 mm | Ct. Ar (female C57BL/6 mice; 15 mg/kg): 0.719 mm^2 | Ct. BV (female C57BL/6 mice; 15 mg/kg): 0.509 mm^3 | Ct. Mat.M.Dn (female C57BL/6 mice; 15 mg/kg): 1235 mgHA/cm^3 | Ct. Th (female C57BL/6 mice; 15 mg/kg): 0.171 mm | Ec. Ar (female C57BL/6 mice; 15 mg/kg): 0.955 mm^2 | Ps.Ar (female C57BL/6 mice; 15 mg/kg): 1.675 mm^2 | Ct. Ar (female C57BL/6 mice; 50 mg/kg): 0.753 mm^2 | Ct. BV (female C57BL/6 mice; 50 mg/kg): 0.532 mm^3 | Ct. Mat.M.Dn (female C57BL/6 mice; 50 mg/kg): 1238 mgHA/cm^3 | Ct. Th (female C57BL/6 mice; 50 mg/kg): 0.175 mm | Ec. Ar (female C57BL/6 mice; 50 mg/kg): 1.006 mm^2 | Ps.Ar (female C57BL/6 mice; 50 mg/kg): 1.758 mm^2 | body or spleen weight at sacrifice ([2]; C57bl/6 mice, 15 mg/kg or 50 mg/kg GSK126 for 5 weeks vs vehicle): No changes | Body and spleen weights ([2]; mouse ovariectomy model, six weeks of daily injections, between surgical and treatment groups): similar
